A short description of assay [1]: A549 cell cytotoxicity, dose response, cytotoxicity control, 24 h, CellTiter-Glo luminescence, cherry-picks (AID 1053115). The class given is functional, cell-based. As to conditions: A549, 24 h.
Assay [2] has as its target T1, Corticotropin-releasing factor receptor 2/Corticotropin-releasing factor-binding protein (Homo sapiens, UniProt P24387+Q13324).
T1 sequence (Q13324 whole entry): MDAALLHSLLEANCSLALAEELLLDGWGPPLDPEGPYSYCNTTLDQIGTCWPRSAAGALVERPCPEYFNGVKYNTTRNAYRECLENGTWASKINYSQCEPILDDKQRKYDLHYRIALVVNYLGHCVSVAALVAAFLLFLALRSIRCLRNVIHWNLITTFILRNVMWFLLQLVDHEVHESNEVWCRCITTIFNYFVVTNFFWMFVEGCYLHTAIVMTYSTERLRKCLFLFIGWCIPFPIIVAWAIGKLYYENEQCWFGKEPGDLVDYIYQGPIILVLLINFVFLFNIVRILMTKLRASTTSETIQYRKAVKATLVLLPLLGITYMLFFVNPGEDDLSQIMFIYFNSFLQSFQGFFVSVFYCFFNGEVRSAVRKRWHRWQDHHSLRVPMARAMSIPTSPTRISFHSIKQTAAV
T1 sequence (P24387 whole entry): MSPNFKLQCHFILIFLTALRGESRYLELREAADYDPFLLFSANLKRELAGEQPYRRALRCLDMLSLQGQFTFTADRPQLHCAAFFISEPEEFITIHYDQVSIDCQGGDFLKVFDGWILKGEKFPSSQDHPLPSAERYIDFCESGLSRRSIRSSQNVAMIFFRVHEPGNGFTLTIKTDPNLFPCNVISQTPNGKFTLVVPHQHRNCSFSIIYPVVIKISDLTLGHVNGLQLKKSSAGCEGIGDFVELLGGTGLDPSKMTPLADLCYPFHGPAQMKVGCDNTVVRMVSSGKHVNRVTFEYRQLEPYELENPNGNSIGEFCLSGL
The experiment in a line: Dose Response confirmation of uHTS hits for small molecule antagonists of the CRF-binding protein and CRF-R2 receptor complex. To be noted: read-out: IC50_Mean. The class given is functional.

The nature of assay [3]: CRF-BP/CRF-R2 complex antagonists, dose response, cell-based, uHTS hits, 384-well (AID 651639). The format is functional, Homo sapiens. As to conditions: read-out: IC50_Mean.
Assay [4] has as its target NAD-dependent protein deacylase sirtuin-5, mitochondrial (Homo sapiens, UniProt Q9NXA8). The experiment in a line: SIRT5 desuccinylase inhibitors, dose response, biochemical, fluorescence imaging, cherry-pick, set 5 (AID 720591).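 Further: desuccinylation of succinyl peptide AMC substrate read as fluorescence after trypsin release; potency of inhibitors that lower fluorescence and may act on trypsin instead.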
Assay [5] concerns the target T2, Small ubiquitin-related modifier 2 (Homo sapiens, UniProt P61956). Description: SUMO2–SIM peptide binding inhibitors, dose response, selectivity assay for SUMO1 interaction inhibitor project, biochemical, fluorescence polarization, uHTS hits (AID 624385). The format is functional. To be noted: read-out: IC50_Mean.
Assay [6] addresses T3, Fatty acid synthase (Homo sapiens, UniProt P49327). The experiment in a line: FAS thioesterase domain inhibitors, dose response, biochemical, kinetic fluorescence intensity (AID 624326).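 Further: rate of fluorescence rise from hydrolysis of a fluorogenic O-methyl fluorescein ester substrate.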 The class given is functional.
Assay [7] has as its target T2, Small ubiquitin-related modifier 2. Description: inhibitors of SUMO2 protein-protein interaction, dose response, selectivity assay for SUMO1 interaction inhibitor project, biochemical, FRET, human SUMO2, uHTS hits (AID 624384). The format is functional. As to conditions: read-out: IC50_Mean.
Assay [8] deals with DNA (cytosine-5)-methyltransferase 1 (Homo sapiens, UniProt P26358). Description: DNMT1 methyltransferase inhibitors, confirmation, biochemical, fluorescent molecular beacon (AID 602386). The format is functional.
Assay [9] addresses T3, Fatty acid synthase. Description: FAS thioesterase domain inhibitors, dose response, biochemical, endpoint fluorescence intensity, uHTS hits (AID 624327).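 Further: fluorescence from hydrolysis of an O-methyl fluorescein acyl ester substrate by the enzyme.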 The format is functional.
The target of assay [10] is T4, Small ubiquitin-related modifier 1 (Homo sapiens, UniProt P63165). Description: inhibitors of SUMO1 peptide binding, dose response, biochemical, fluorescence polarization, uHTS hits (AID 624382). The class given is functional. To be noted: read-out: IC50_Mean. (In fluorescence polarisation assays a small probe gives low polarisation when free and higher when bound to something large.)

Assay [11] has as its target T1, Corticotropin-releasing factor receptor 2/Corticotropin-releasing factor-binding protein. The experiment in a line: activators of CRF receptor 2 with binding protein – uHTS hits, confirmation (AID 602473). The format is functional. As to conditions: read-out: EC50_Mean.
Assay [12] concerns the target T4, Small ubiquitin-related modifier 1. The experiment in a line: inhibitors of SUMO1 partner interactions, dose response, biochemical, FRET (AID 624383). To be noted: read-out: IC50_Mean. The class given is functional.
The nature of assay [13]: MALME3 melanoma cell viability reduction, dose response, orthogonal assay for MITF inhibitor project, CellTiter-Glo luminescence, dry powder, set 5 (AID 651584). The format is functional, cell-based. As to conditions: MALME-3. In general terms: ATP-based viability assays read luminescence as a measure of living cells.
Assay [14] can be described thus: TRPM1 promoter luciferase reporter signal decrease, dose response, MITF inhibitor project, cell-based, SK-MEL-5, dry powder, set 9 (AID 651588). The format is functional.
Assay [15] can be described thus: MITF: Counter assay: A375 proliferation Measured in Cell-Based System Using Plate Reader - 2084-03_Inhibitor_Dose_DryPowder_Activity_Set8. The format is functional. To be noted: A-375.
The nature of assay [16]: MITF Orthogonal Assay: MALME3 CTG Assay Measured in Cell-Based System Using Plate Reader - 2084-04_Inhibitor_Dose_DryPowder_Activity_Set6. The class given is functional. To be noted: MALME-3.
The nature of assay [17]: SK-MEL-5 parental cell viability reduction, dose response, orthogonal assay for MITF inhibitor project, CellTiter-Glo luminescence, dry powder, set 8 (AID 651586). The class given is functional, cell-based.
Assay [18] can be described thus: MITF Orthogonal Assay: SK-MEL-5 CTG Assay Measured in Cell-Based System Using Plate Reader - 2084-02_Inhibitor_Dose_DryPowder_Activity_Set7. The class given is functional.
The nature of assay [19]: TRPM1 promoter luciferase reporter signal decrease, dose response, MITF inhibitor project, cell-based, SK-MEL-5, dry powder, set 8 (AID 624430). The class given is functional.
The nature of assay [20]: A375 melanoma cell viability loss, dose response, counter-screen for MITF modulator project, CellTiter-Glo luminescence, dry powder, set 9 (AID 651591). The class given is functional, cell-based. To be noted: A-375. (In general: The purpose of a counterscreen is to sort out artefacts and off-target activity.)
Assay [21] concerns the target Caspase-8 (Homo sapiens, UniProt Q14790). The experiment in a line: caspase-8 inhibition counter-screen, dose response, selectivity assay for caspase-6 inhibitor project, biochemical, Z-IETD-R110 fluorescence, cherry-picked samples (AID 743294).
Assay [22] deals with T5, Caspase-6 (Homo sapiens, UniProt P55212).
T5 sequence (P55212 whole entry): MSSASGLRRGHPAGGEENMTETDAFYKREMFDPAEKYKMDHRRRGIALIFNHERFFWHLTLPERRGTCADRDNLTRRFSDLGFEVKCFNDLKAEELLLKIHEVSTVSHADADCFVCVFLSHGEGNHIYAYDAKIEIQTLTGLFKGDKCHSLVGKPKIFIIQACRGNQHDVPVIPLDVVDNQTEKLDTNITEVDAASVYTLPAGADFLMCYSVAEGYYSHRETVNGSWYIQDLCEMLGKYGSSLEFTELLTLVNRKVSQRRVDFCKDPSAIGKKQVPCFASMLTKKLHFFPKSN
Description: human caspase-6 inhibitors, dose response, biochemical, VEID-R110 fluorescence, cherry-pick (AID 720632).

Assay [23] concerns the target T6, Apoptotic protease-activating factor 1 (Homo sapiens, UniProt O14727).
T6 sequence (O14727 whole entry): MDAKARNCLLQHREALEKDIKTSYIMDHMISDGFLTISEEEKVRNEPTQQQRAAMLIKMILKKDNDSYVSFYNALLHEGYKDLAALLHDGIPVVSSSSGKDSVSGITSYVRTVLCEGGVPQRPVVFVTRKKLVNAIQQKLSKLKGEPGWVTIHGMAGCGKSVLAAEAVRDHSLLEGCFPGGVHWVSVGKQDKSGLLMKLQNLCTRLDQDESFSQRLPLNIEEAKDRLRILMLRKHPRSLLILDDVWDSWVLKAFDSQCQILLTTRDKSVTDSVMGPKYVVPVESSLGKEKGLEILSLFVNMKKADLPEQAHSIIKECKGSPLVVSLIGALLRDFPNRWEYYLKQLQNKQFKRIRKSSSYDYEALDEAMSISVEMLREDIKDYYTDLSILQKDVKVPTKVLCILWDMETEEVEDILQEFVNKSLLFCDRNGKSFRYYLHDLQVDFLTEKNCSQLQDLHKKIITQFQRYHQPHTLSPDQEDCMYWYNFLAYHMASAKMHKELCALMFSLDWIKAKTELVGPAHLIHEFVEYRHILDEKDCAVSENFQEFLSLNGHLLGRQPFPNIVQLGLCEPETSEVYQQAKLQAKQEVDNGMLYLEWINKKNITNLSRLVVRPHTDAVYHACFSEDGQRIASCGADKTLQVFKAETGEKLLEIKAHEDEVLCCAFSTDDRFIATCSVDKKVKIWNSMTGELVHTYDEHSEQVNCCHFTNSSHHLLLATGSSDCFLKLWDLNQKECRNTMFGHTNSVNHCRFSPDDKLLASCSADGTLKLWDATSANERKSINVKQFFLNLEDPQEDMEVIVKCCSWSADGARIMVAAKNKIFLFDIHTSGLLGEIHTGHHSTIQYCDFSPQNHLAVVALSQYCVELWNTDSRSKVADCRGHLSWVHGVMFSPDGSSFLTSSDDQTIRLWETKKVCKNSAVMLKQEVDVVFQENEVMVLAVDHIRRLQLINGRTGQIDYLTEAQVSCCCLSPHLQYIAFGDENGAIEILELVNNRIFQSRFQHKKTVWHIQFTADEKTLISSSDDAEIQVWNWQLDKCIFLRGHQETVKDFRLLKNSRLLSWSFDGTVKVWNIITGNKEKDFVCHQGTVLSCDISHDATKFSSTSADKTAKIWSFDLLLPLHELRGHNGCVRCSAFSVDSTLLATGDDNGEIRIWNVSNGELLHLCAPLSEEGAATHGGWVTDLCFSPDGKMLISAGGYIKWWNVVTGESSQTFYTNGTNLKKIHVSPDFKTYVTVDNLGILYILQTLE
The format is functional.

The target of assay [24] is Caspase-9 (Homo sapiens, UniProt P55211). The experiment in a line: caspase-9 enzyme inhibition, dose response, selectivity assay for caspase-6 inhibitor project, biochemical, fluorescence, plate reader, cherry-picked samples (AID 743293).
Assay [25] has as its target Caspase-7 (Homo sapiens, UniProt P55210). Description: human caspase-7 inhibitors, dose response, selectivity assay for caspase-6 inhibitor project, biochemical, DEVD-R110 fluorescence, cherry-pick (AID 743295). The class given is […].
For assay [26], the target named is T7, Mannose-6-phosphate isomerase (Homo sapiens, UniProt P34949).
T7 sequence (P34949 whole entry): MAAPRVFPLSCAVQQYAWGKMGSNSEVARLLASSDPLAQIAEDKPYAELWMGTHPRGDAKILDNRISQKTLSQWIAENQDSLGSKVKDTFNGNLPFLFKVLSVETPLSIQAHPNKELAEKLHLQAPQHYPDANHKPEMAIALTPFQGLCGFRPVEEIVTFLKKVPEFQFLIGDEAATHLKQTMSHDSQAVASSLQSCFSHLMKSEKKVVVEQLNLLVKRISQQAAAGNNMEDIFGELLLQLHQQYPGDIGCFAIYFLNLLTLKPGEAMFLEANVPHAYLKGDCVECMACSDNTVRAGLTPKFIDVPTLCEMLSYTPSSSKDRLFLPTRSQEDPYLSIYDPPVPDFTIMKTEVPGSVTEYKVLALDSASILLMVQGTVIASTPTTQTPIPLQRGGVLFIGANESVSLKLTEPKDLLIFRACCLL
The experiment in a line: human PMI inhibitors, high substrate, primary screen, biochemical, fluorescence intensity, high mannose 6-phosphate (AID 1220).

The source made the active and inactive calls.

The AC50 is the concentration giving half of the maximal activity seen.

T3 sequence (P49327 whole entry, the tested form may be a part): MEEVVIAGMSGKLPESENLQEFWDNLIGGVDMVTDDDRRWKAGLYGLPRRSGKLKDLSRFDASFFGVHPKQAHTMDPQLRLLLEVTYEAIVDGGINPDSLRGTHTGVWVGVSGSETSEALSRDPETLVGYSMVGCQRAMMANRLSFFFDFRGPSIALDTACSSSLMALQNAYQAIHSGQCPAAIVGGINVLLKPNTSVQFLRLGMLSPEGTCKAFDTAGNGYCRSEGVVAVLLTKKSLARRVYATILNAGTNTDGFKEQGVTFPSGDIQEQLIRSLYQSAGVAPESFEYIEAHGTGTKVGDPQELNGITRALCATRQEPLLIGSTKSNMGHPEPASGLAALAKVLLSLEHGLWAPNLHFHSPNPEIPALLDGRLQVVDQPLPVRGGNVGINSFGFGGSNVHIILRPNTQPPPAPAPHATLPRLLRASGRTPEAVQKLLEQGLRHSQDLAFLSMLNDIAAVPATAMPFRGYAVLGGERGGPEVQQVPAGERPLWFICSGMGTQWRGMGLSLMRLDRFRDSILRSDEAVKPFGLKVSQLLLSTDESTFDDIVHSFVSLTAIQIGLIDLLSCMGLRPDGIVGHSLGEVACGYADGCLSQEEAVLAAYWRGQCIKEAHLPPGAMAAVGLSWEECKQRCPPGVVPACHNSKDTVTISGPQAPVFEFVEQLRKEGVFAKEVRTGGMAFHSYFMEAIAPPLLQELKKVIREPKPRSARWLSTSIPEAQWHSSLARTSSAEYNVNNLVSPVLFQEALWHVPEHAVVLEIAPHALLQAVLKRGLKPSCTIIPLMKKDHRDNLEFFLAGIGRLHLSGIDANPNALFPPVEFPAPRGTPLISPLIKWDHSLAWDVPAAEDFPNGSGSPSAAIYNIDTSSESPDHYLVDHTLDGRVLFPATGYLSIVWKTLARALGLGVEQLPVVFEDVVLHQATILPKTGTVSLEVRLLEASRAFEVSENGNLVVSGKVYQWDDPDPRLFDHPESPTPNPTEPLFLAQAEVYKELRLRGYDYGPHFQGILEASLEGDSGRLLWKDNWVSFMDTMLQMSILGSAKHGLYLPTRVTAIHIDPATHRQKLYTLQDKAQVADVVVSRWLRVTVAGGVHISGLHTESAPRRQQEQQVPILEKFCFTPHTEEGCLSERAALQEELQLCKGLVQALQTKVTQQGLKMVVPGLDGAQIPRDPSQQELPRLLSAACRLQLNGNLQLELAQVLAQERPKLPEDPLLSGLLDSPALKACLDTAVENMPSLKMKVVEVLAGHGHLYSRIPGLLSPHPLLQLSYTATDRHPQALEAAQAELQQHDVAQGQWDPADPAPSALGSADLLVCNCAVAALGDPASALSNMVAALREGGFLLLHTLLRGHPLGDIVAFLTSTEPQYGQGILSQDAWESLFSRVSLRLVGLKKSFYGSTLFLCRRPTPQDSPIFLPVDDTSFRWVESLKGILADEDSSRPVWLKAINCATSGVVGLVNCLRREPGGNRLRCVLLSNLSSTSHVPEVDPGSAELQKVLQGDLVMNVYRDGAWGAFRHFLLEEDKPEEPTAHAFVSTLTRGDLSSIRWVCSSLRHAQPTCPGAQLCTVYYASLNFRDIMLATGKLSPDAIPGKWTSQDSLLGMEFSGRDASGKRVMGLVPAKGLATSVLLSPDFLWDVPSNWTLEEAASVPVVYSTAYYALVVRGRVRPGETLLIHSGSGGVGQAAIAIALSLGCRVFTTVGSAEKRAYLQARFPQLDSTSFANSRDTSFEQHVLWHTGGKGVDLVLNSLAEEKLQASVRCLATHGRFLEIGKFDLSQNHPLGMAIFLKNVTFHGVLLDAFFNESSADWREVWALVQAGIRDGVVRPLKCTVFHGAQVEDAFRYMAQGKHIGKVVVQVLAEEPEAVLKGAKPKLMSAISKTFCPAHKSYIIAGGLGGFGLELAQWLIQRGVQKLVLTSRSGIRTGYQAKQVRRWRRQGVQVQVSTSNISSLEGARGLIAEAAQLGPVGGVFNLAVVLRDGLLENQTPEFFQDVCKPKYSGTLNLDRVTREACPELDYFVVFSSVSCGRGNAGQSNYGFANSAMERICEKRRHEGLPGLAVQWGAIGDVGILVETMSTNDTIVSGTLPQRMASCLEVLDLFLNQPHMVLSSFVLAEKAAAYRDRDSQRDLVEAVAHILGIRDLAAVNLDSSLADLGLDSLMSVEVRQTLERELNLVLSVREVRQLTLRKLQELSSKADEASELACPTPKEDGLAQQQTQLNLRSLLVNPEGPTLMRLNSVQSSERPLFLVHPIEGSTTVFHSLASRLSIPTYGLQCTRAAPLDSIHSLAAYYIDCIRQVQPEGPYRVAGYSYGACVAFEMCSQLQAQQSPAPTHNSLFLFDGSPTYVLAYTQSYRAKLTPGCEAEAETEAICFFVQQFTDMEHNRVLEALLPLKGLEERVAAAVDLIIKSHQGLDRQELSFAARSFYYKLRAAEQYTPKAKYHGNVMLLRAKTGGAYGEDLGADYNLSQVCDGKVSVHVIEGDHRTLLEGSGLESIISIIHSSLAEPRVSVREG
T2 sequence (P61956 whole entry, the tested form may be a part): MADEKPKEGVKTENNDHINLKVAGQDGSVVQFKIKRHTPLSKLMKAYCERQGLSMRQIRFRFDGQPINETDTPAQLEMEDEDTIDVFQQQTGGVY
T4 sequence (P63165 whole entry): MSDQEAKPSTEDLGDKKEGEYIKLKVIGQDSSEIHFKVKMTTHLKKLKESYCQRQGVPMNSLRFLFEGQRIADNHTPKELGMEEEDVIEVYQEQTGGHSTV
Sequence of Caspase-9 (P55211 1-315 limits assumed): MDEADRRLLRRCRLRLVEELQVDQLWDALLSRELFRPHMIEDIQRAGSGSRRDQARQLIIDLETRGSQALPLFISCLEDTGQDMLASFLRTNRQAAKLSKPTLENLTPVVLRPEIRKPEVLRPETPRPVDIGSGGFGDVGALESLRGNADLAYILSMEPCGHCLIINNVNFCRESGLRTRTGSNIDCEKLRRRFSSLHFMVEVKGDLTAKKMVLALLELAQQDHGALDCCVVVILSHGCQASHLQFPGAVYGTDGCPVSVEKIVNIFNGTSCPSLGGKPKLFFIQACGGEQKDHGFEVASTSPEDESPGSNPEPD
Sequence of Caspase-9 (P55211 331-416 limits assumed): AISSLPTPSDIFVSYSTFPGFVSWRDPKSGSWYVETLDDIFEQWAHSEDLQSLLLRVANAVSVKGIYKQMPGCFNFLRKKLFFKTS
Sequence of Caspase-8 (Q14790 217-374 limits assumed): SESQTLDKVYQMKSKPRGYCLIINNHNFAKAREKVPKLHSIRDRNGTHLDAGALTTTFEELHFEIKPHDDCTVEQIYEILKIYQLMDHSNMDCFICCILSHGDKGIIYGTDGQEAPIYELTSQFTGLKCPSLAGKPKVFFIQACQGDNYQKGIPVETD
Sequence of Caspase-8 (Q14790 385-479 limits assumed): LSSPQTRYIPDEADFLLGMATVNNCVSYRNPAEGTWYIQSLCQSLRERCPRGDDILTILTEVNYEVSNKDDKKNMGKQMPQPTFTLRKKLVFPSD
Sequence of NAD-dependent protein deacylase sirtuin-5, mitochondrial (Q9NXA8 whole entry): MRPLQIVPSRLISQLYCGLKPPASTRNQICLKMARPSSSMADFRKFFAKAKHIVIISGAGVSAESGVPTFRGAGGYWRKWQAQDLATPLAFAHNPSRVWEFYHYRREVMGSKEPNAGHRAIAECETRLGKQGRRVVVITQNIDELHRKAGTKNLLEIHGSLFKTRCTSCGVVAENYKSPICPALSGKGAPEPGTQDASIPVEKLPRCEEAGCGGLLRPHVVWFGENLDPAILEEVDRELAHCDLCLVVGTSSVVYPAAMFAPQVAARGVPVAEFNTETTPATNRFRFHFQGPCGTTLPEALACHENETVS
Sequence of Caspase-7 (P55210 24-198 limits assumed): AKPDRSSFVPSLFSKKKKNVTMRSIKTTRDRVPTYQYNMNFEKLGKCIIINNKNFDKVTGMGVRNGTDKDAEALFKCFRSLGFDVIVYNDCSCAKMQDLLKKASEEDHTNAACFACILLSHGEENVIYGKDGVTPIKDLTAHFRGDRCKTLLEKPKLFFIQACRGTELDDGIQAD
Sequence of Caspase-7 (P55210 207-303 limits assumed): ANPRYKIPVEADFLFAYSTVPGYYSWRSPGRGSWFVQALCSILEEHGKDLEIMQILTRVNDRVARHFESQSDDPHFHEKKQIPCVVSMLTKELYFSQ

Consider `CCOC(=O)[C@@H]1[C@@H]2C=C[C@]3(O2)[C@H](C(=O)NCc2ccccc2)N(CCCCCCO)C(=O)[C@@H]13`, for which the AC50 in assay [1] was 48.1 µM (active).
Take `COc1cc(CCc2ccccc2)c(C(=O)O)c(O)c1C/C=C(/C)CCC=C(C)C`: the IC50 in assay [2] was < 0.368 µM (active); in [3], 3.79 µM (active); in [5], 28.8 µM (inactive); in assay [6], 8.42 µM (active); in [7] it was 15.5 µM (active); in assay [8] it was 3.5 µM (active). In addition, the results for the IC50 in assay [9], in assay [10] and in assay [12] were 8.25 µM (active), 17.8 µM (active) and 14.4 µM (active), respectively. In [4], the AC50 is 15.7 µM (active). In addition, in [11], the EC50 was > 53 µM (inactive).
With `O=C1C(Nc2cccc(Cl)c2)=C(N2CCCC2)C(=O)c2ccccc21`, the AC50 is > 70 µM (inactive) in assay [13]; 46.8 µM (active) in [14]; > 70 µM (inactive) in assay [15]; > 70 µM (inactive) in [16]; > 70 µM (inactive) in assay [17]; 5.52 µM (active) in assay [18]. For the same compound, the AC50 in assay [19] is 8.39 µM (active); in assay [20], > 70 µM (inactive).
`CCOc1c(O)ccc(/C=C2\SC(=S)NC2=O)c1[N+](=O)[O-]`: the AC50 was > 70 µM (inactive) in assay [21], 4.1 µM (active) in assay [22], 53.6 µM (active) in assay [24] and 25.5 µM (active) in assay [25]. Further, the IC50 is 15.8 µM (active) in assay [23] and > 50 µM (not active) in assay [26].
